Assay results as given in publication PMC7311426, “An amphipathic peptide with antibiotic activity against multidrug-resistant Gram-negative bacteria” (Nature Communications, 2020).

Key:
Test in all cases: microbe, parasite or virus in culture
[1] = tested on: P. aeruginosa (UNT138-1 & ATCC 27853); format: cell-based, Pseudomonas aeruginosa
Protocol: (§1) The test media was cation-adjusted MHB (CAMHB, Becton Dickinson) supplemented with 2% Noble Agar (Becton Dickinson) and additionally for AA139 with 0.1% BSA. The agar dilution MIC values were determined as recommended by Clinical and Laboratory Standards Institute (CLSI)[47]. […] The inoculum for the spontaneous mutation plates targeted 10^9 to 10^10 colony-forming units (CFU) per plate. The viable count of each suspension was determined by plating serial ten-fold dilutions onto MHB/NA in duplicate. In addition, agar plates without drug were inoculated as positive controls. Plates were inspected for growth at both 24 and 48 h. Colony counts were determined manually. Using the counts at 48 h, the spontaneous mutation frequency was calculated using the following equation: (average number of colonies from duplicate selection plates)/(total number of cells inoculated onto each plate). If there were no colonies on the antibiotic selection plates, the spontaneous mutation frequency was reported as less than the frequency observed with one colony to indicate that the spontaneous mutation frequency was less than the limit of detection (one CFU).

A. baumannii ATCC 19636 = format: cell-based, Acinetobacter baumannii
[2] = tested on: E. coli (AID#172 & ATCC 25922); format: cell-based, Escherichia coli
Protocol: as §1

E. coli ATCC 25922 = format: cell-based, Escherichia coli; parameters: MIC, Survanta (5%) replicates: unit not given beside the values; settings: for MIC, Survanta (5%) replicates: BMD with 5% Survanta lung surfactant
Summary of the method: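 Broth microdilution MIC in Mueller Hinton broth, 12-point 2-fold series from 128 or 64 down to 0.06 or 0.03 μg mL^−1, 5 × 10^5 CFU mL^−1 inoculum. Read visually after 18-20 h at 37 °C without shaking; n ≥ 6. Additional tests in CAMHB, and in MHB with 1% agarose.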

K. pneumoniae = format: cell-based, Klebsiella pneumoniae
[3] = A. baumannii ATCC 19636 type strain, n=2 to 6, mode or median

Which results are given for colistin?
Agar (Noble) Dilution MIC ([1]; P. aeruginosa ATCC 27853): 2 µg/mL; Noble agar dilution MIC ([1]; P. aeruginosa ATCC 27853): 2 µg/mL; Noble agar dilution MIC ([1]; P. aeruginosa UNT138-1): 2 µg/mL; MIC, Survanta (5%) (A. baumannii ATCC 19636; A. baumannii ATCC 19636, type strain, BMD with 5% Survanta lung surfactant, mode, or median where no mode, n=4 to 6, where n=2 differs the higher value): 0.125; MIC, Survanta (5%) replicates (A. baumannii ATCC 19636; A. baumannii ATCC 19636, type strain, BMD with 5% Survanta lung surfactant, replicate 1): 0.5; MIC, Survanta (5%) replicates (A. baumannii ATCC 19636; A. baumannii ATCC 19636, type strain, BMD with 5% Survanta lung surfactant, replicate 2): 0.25; MIC, Survanta (5%) replicates (A. baumannii ATCC 19636; A. baumannii ATCC 19636, type strain, BMD with 5% Survanta lung surfactant, replicate 3): 0.06; MIC, Survanta (5%) replicates (A. baumannii ATCC 19636; A. baumannii ATCC 19636, type strain, BMD with 5% Survanta lung surfactant, replicate 4): 0.06; MIC, Serum (50%) (A. baumannii ATCC 19636; A. baumannii ATCC 19636, type strain, BMD with 50% human serum, mode, or median where no mode, n=4 to 6, where n=2 differs the higher value): ≤0.031; MIC, Serum (50%) replicates (A. baumannii ATCC 19636; A. baumannii ATCC 19636, type strain, BMD with 50% human serum, replicate 1): ≤0.031; MIC, Serum (50%) replicates (A. baumannii ATCC 19636; A. baumannii ATCC 19636, type strain, BMD with 50% human serum, replicate 2): ≤0.031; MIC, Serum (50%) replicates (A. baumannii ATCC 19636; A. baumannii ATCC 19636, type strain, BMD with 50% human serum, replicate 3): ≤0.031; MIC, Serum (50%) replicates (A. baumannii ATCC 19636; A. baumannii ATCC 19636, type strain, BMD with 50% human serum, replicate 4): ≤0.031; MIC, Serum (50%) (A. baumannii ATCC 19636; [3]): ≤ 0.031 µg/mL; MIC, Survanta (5%) (A. baumannii ATCC 19636; [3]): 0.125 µg/mL; Noble agar dilution MIC ([2]; E. coli AID#172): 1 µg/mL; Spontaneous frequency of resistance at 4× MIC ([2]; E. coli AID#172, counts at 48 h, >TC = colonies too numerous to count): >TC; Agar (Noble) Dilution MIC ([2]; E. coli ATCC 25922): 1 µg/mL; Noble agar dilution MIC ([2]; E. coli ATCC 25922): 1 µg/mL; MIC, Survanta (5%) replicates (E. coli ATCC 25922; E. coli ATCC 25922, FDA control strain, replicate 1): 0.06; MIC, Survanta (5%) replicates (E. coli ATCC 25922; E. coli ATCC 25922, FDA control strain, replicate 2): 0.06; MIC, Survanta (5%) replicates (E. coli ATCC 25922; E. coli ATCC 25922, FDA control strain, replicate 3): ≤0.03; MIC, Survanta (5%) replicates (E. coli ATCC 25922; E. coli ATCC 25922, FDA control strain, replicate 4): ≤0.03; MIC, Serum (50%) (E. coli ATCC 25922; E. coli ATCC 25922, FDA control strain, BMD with 50% human serum, mode, or median where no mode, n=4 to 6, where n=2 differs the higher value): ≤0.03; MIC, Serum (50%) replicates (E. coli ATCC 25922; E. coli ATCC 25922, FDA control strain, BMD with 50% human serum, replicate 1): ≤0.03; MIC, Serum (50%) replicates (E. coli ATCC 25922; E. coli ATCC 25922, FDA control strain, BMD with 50% human serum, replicate 2): ≤0.03; MIC, Serum (50%) replicates (E. coli ATCC 25922; E. coli ATCC 25922, FDA control strain, BMD with 50% human serum, replicate 3): 0.125; MIC, Serum (50%) replicates (E. coli ATCC 25922; E. coli ATCC 25922, FDA control strain, BMD with 50% human serum, replicate 4): 0.063; MIC, Serum (50%) replicates (E. coli ATCC 25922; E. coli ATCC 25922, FDA control strain, BMD with 50% human serum, replicate 5): ≤0.03; MIC, Serum (50%) replicates (E. coli ATCC 25922; E. coli ATCC 25922, FDA control strain, BMD with 50% human serum, replicate 6): ≤0.03; MIC, Serum (50%) (E. coli ATCC 25922; E. coli ATCC 25922, MHB + 50% (v/v) human serum, n=2 to 6, mode or median): ≤ 0.03 µg/mL; MIC, Serum (50%) replicates (K. pneumoniae; K. pneumoniae ATCC 13883, type strain, BMD with 50% human serum, replicate 1): ≤0.03; MIC, Serum (50%) replicates (K. pneumoniae; K. pneumoniae ATCC 13883, type strain, BMD with 50% human serum, replicate 2): ≤0.03; MIC, Serum (50%) (K. pneumoniae; K. pneumoniae ATCC 13883, type strain, BMD with 50% human serum, where n=2 differs the higher value is recorded): ≤0.03; MIC, Serum (50%) (K. pneumoniae; K. pneumoniae ATCC 13883 type strain, n=2 to 6, mode or median): ≤ 0.03 µg/mL; MIC, Survanta (5%) (K. pneumoniae; K. pneumoniae ATCC 700603, ESBL, OXA-2/SHV-18, BMD with 5% Survanta lung surfactant, mode, or median where no mode, n=4 to 6, where n=2 differs the higher value): 0.125; MIC, Survanta (5%) replicates (K. pneumoniae; K. pneumoniae ATCC 700603, ESBL, OXA-2/SHV-18, BMD with 5% Survanta lung surfactant, replicate 1): 1; MIC, Survanta (5%) replicates (K. pneumoniae; K. pneumoniae ATCC 700603, ESBL, OXA-2/SHV-18, BMD with 5% Survanta lung surfactant, replicate 2): 0.5; MIC, Survanta (5%) replicates (K. pneumoniae; K. pneumoniae ATCC 700603, ESBL, OXA-2/SHV-18, BMD with 5% Survanta lung surfactant, replicate 3): 0.03; MIC, Survanta (5%) replicates (K. pneumoniae; K. pneumoniae ATCC 700603, ESBL, OXA-2/SHV-18, BMD with 5% Survanta lung surfactant, replicate 4): 0.06; MIC, Serum (50%) (K. pneumoniae; K. pneumoniae ATCC 700603, ESBL, OXA-2/SHV-18, BMD with 50% human serum, mode, or median where no mode, n=4 to 6, where n=2 differs the higher value): 0.125; MIC, Serum (50%) replicates (K. pneumoniae; K. pneumoniae ATCC 700603, ESBL, OXA-2/SHV-18, BMD with 50% human serum, replicate 1): 0.25
